Assay results reported in patent publication US8895762B2, “Process for the preparation of sulfamide derivatives” (Janssen Pharmaceutica NV, priority 2011, dated 2014).

Assay: solubility in water at room temperature
Format: physicochemical

solubility in water: 0.35 g/100 g water
SMILES: NC[C@H]1COc2cc(Cl)ccc2O1 [compound of formula (V-S), (2S)-6-chloro-2,3-dihydro-1,4-benzodioxin-2-methanamine]
